From patent US20160206631A1, “OXYSTEROLS THAT ACTIVATE LIVER X RECEPTOR SIGNALING AND INHIBIT HEDGEHOG SIGNALING” (THE REGENTS OF THE UNIVERSITY OF CALIFORNIA, priority 2010, published 2016)

How the values were obtained:
LXR [1] = experiment: ABCA1 (LXR target gene) expression by Q-RT-PCR in M2-10B4 bone marrow stromal cells; conditions: for fold induction at 2 µM: M210B4, 48 h, read-out: ABCA1 gene expression, Fold Induction ± SD; for LXR signaling activation: bone marrow stromal cells
Procedure: This was measured by the ability of these molecules to induce the expression of LXR-target genes, including ABCA1, in M2-10B4 bone marrow stromal cells (MSC) after 48 hours of treatment (Table 1).

[2] = tested on: L3.6p1 human pancreatic cancer cells; experiment: Clonogenic growth of L3.6p1 pancreatic cancer cells in methylcellulose; type: cell-based; conditions: 72 hours treatment, colonies counted after 10 days
Procedure: (§1) Following treatment cells were harvested by washing cells twice with phosphate buffered saline (PBS) followed by enzymatically detaching with trypsin/EDTA. Cells were collected then washed twice with PBS. Cells were counted then resuspended in 500 uL of media. The volume of cells required for 2,000 cells from the control group was removed from each group then mixed with methylcellulose (1.2%) containing 30% fetal bovine serum, 1% bovine serum albumin, 10^-4 M 2-mercaptoethanol, and 2 mM L-glutamine. Cells were plated in low-attachment 6 well plates (1 ml/well), each group being plated in triplicate. Following 10 days of incubation, tumor cell colonies consisting of >40 cells were counted using an inverted microscope. Results are presented as the percentage of colonies from each treatment group compared to the control group (Table 2).

[3] = tested on: Saos-2 human osteosarcoma cells; experiment: Anchorage-independent clonogenic growth of Saos-2 cells; type: cell-based; conditions: Saos-2; 1 μM, 72 hours, colonies after 10 days (FIG. 4)
Procedure: (§2) Next, cells were harvested and examined for clonogenic growth in non-adherent plates after 10 days of culturing. Data from a representative of two separate experiments are reported as the relative number of colonies formed by cells treated with LXR ligands relative to cells treated with control vehicle (% of control).
(§3) We examined whether LXR activation inhibits the clonogenic growth of human osteosarcoma cells using an anchorage-independent cell growth assay. Saos-2 and U2OS cells were seeded in standard tissue culture plates and treated for 72 hours with control vehicle or 1 μM of TO, 22R, or Oxy16. Following treatments with LXR ligands, the drugs were removed and the cells harvested and plated in methylcellulose media in non-adherent plates (Costar) and the cell colonies formed after 10 days were counted.

[4] = tested on: U2OS human osteosarcoma cells; experiment: Anchorage-independent clonogenic growth of U2OS cells; type: cell-based; conditions: 1 μM, 72 hours, colonies after 10 days (FIG. 4)
Procedure: as §2, §3

LXR [5] = experiment: LXR target gene expression in human pancreatic cancer cells
Hedgehog signaling = experiment: CAPAN-1 conditioned-medium-induced Hh target gene expression (Ptch1, HHIP, Gli1) in C3H10T1/2 cells; type: cell-based; conditions: C3H10T1/2 cells treated with CAPAN-1 CM
Procedure: Next, cells were treated with DMEM containing 5% […] or CAPAN-1 CM in the presence or absence of TO, Oxy16, or Cyc. After 48 hours, RNA was extracted and analyzed by Q-RT-PCR for the expression of Hh target genes Ptch1, HHIP, and Gli1 and normalized to GAPDH expression.
As noted above, Hh signaling appears to play an important role in the initiation and progression of pancreatic cancer (26), and the inhibition of HE signaling using small molecule antagonists inhibits pancreatic cancer cells from growing in vitro and in vivo (50). […] Subsequently, Hh signaling in stromal cells provides a permissive milieu for tumor cells to grow. […] In this Example, we examine this possibility using an in vitro model system in which Hh signaling is induced in C3H10T1/2 embryonic fibroblasts by conditioned-medium (CM) from CAPAN-1 human pancreatic cancer cells.
In order to assess the functional activity of Hh proteins produced by CAPAN-1 cells, we examined the ability of CM to induce Hh target gene expression in C3H10T1/2 embryonic fibroblasts.

[6] = tested on: human pancreatic cancer cells; experiment: Clonogenic growth of human pancreatic cancer cells in vitro; type: cell-based
REH human ALL cells = experiment: Clonogenic growth of REH ALL cells; type: cell-based
Procedure: as §1
A similar experiment to that shown above for pancreatic cancer cells was performed using the human ALL cells, REH (Table 3).

LXR [7] = experiment: LXR target gene expression by Q-RT-PCR in Saos-2 osteosarcoma cells; type: cell-based, human; conditions: Saos-2 cells (FIG. 2, 72 hours for TO)
Description: Data from a representative experiment are reported as the Data from a representative experiment are reported as the mean of triplicate determinations±SD relative to the expression level of LXRα (p<0.001 for control vs. both concentrations of TO for ABCA1 and SREBP1c mRNA).
Culturing the cells in varying serum (FBS) concentrations from 1% to 10% had no effect on LXRs or LXR target gene expression levels at baseline.

[8] = tested on: NCI-H929 multiple myeloma cancer stem cells; experiment: Percentage of cancer stem cells (CD138 negative, ALDH positive) in NCI-H929 cultures by flow cytometry; type: cell-based, human; conditions: 1 μM, 96 hours (FIGS. 7, 8)
Procedure: NCI-H929 multiple myeloma cells were treated for 96 hours with control vehicle or 1 μM of each compound as shown. Next, percentage of CD138negative cells in the same number of starting cells from each group was determined by flow cytometry.
NCI-H929 multiple myeloma cells were treated for 96 hours with control vehicle or 1 μM of each compound as shown. Next, percentage of ALDH+ cells in the same number of starting cells from each group was determined by flow cytometry.

[9] = tested on: human primary multiple myeloma cells derived from patients; experiment: Clonogenic growth of primary multiple myeloma cells from patients in methylcellulose; type: cell-based; conditions: 1 μM, 96 hours, CD34+ and CD138+ depleted bone marrow mononuclear cells
[10] = tested on: human NCI-H929 multiple myeloma cell line; experiment: Clonogenic growth of NCI-H929 multiple myeloma cells; type: cell-based; conditions: 1 μM, 96 hours, colonies after 10 days (FIG. 6)
Procedure: NCI-11929 multiple myeloma cells were treated for 96 hours with control vehicle or 1 μM of each compound as shown. Next, drugs were removed and cells were plated in methylcellulose. Clonogenic growth of colonies determined after 10 days. Data are reported as percentage of colony number normalized to control group.
In order to examine the effect of LXR activation on the clonogenic growth of multiple myeloma cells, the human NCI-H929 multiple myeloma cell line was used.

Q: What does the source list for CC(C)CCC[C@](C)(O)C1CCC2C3CC=C4CC(=O)CC[C@]4(C)C3CC[C@@]21C (stereo partly drawn) [Oxy30, (10R,13S)-17-((S)-2-Hydroxy-6-methylheptan-2-yl)-10,13-dimethyl-4,7,8,9,10,11,12, 13,14,15,16,17-dodecahydro-1H-cyclopenta[a]phenanthren-3(2H)-one]?
A: fold induction at 2 µM (LXR [1]): 2.8 ± 0.8; LXR signaling activation (LXR [1]): Activate LXR Signaling; Normalized Colony # (% of control) ([2]; 5 μM): 39 % of control; Raw Colony # ([2]; 5 μM): 96; Normalized Colony # (% of control) ([2]; 10 μM): 41 % of control; Raw Colony # ([2]; 10 μM): 100

Q: For CC(C)CCC[C@](C)(O)C1CCC2C3CCC4=CC(=O)CC[C@]4(C)C3CC[C@@]21C (stereo partly drawn) [Oxy31, (10R,13S)-17-((S)-2-Hydroxy-6-methylheptan-2-yl)-10,13-dimethyl-6,7,8,9,10,11,12, 13,14,15,16,17-dodecahydro-1H-cyclopenta[a]phenanthren-3(2H)-one], which fold induction at 2 µM (LXR [1]) is on record?
A: 2 ± 0.3

Q: What about the LXR signaling activation (LXR [1]) of the same compound?
A: Activate LXR Signaling

Q: Which results are given for CC(C)CC[C@@H](O)[C@@H](C)[C@H]1CC[C@H]2[C@@H]3CC=C4C[C@@H](O)CC[C@]4(C)[C@H]3CC[C@]12C [Oxy 22R, 22R-hydroxycholesterol, reference compound]?
A: clonogenic growth [3]: significant inhibition; clonogenic growth [4]: significant inhibition; expression of LXR target genes (LXR [5]): induce the expression of LXR target genes; CM-induced Hh signaling (Hedgehog signaling): inhibited; clonogenic growth [6]: significantly inhibit; Normalized Colony # (% of control) (REH human ALL cells; 0.1 μM): 36 % of control; Raw Colony # (REH human ALL cells; 0.1 μM): 33; Normalized Colony # (% of control) (REH human ALL cells; 0.5 μM): 2 % of control; Raw Colony # (REH human ALL cells; 0.5 μM): 2; Normalized Colony # (% of control) ([2]; 5 μM): 63 % of control; Raw Colony # ([2]; 5 μM): 153; Normalized Colony # (% of control) ([2]; 10 μM): 59 % of control; Raw Colony # ([2]; 10 μM): 142; expression of LXR target genes ABCA1 and SREBP1c (LXR [7]): significant expression

Q: How did the “expression of LXR target genes ABCA1 and SREBP1c” value (LXR [7]) turn out when CC(C)CCC[C@](C)(O)[C@H]1CC[C@H]2[C@@H]3CC=C4C[C@@H](O)CC[C@]4(C)[C@H]3CC[C@@]21C [Oxy 20S, 20(S)-hydroxycholesterol, reference compound] was run?
A: significant expression

Q: What does the source list for C[C@]12CC[C@H]3[C@@H](CC=C4C[C@@H](O)CC[C@@]43C)[C@@H]1CC[C@@H]2[C@@](C)(O)CCc1cccnc1 [Oxy43, (3S,8S,9S,10R,13S,14S,17S)-17-((S)-2-Hydroxy-4-(yridine-3-yl)butan-2-yl)-10,13-dimethyl-2,3,4,7,8,940,11,12,13,14,15,16,17-tetradecahydro-1H-cyclopenta-[a]-phenanthren-3-ol]?
A: fold induction at 2 µM (LXR [1]): 2.5 ± 0.8; LXR signaling activation (LXR [1]): Activate LXR Signaling

Q: How did the “CM-induced Hh signaling” value (Hedgehog signaling) turn out when CC(C)CC[C@H](O)[C@@H](C)[C@H]1CC[C@H]2[C@@H]3CC=C4C[C@@H](O)CC[C@]4(C)[C@H]3CC[C@]12C [22(S)-hydroxycholesterol] was run?
A: did not have similar inhibitory effects

Q: Which results are given for CC(C)CCC[C@](C)(O)C1CCC2C3CC=C4C[C@H](O)CC[C@]4(C)C3CC[C@@]21C (stereo partly drawn) [Oxy35, (3R,10R,13S)-17-((S)-2-Hydroxy-6-methylheptan-2-yl)-10,13-dimethyl-2,3,4,7,8,9, 10,11,12,13,14,15,16,17-tetradecahydro-1H-cyclopenta[a]phenanthren-3-ol]?
A: fold induction at 2 µM (LXR [1]): 4 ± 1.2; LXR signaling activation (LXR [1]): Activate LXR Signaling

Q: For CC(C)CCC[C@](C)(O)C1CCC2C3CC=C4C=CCC[C@]4(C)C3CC[C@@]21C (stereo partly drawn) [Oxy37, (2S)-2-((10R,13S)-10,13-Dimethyl-2,7,8,9,10,11,12,13,14,15,16,17-dodecahydro-1H-cyclopenta[a]phenanthren-17-yl)-6-methylheptan-2-ol], which fold induction at 2 µM (LXR [1]) is on record?
A: 2 ± 0.1

Q: And the LXR signaling activation (LXR [1])?
A: Activate LXR Signaling

Q: With C[C@]12CC[C@H]3[C@@H](CC=C4C[C@@H](O)CC[C@@]43C)[C@@H]1CC[C@@H]2[C@@](C)(O)CCc1ccc(F)cc1 [Oxy45, (3S,8S,9S,10R,13S,14S,17S)-17-((S)-4-(4-Fluorophenyl)-2-hydroxybutan-2-yl)-10,13-dimethyl-2,3,4,7,8,9,10,11,12,13,14,15,16,17-tetradecahydro-1H-cyclopenta-M-phenanthren-3-ol] as the compound, how does the “percentage of cancer stem cells (CD138 negative and ALDH positive cells)” value [8] read?
A: significantly reduced

Q: What about the fold induction at 2 µM (LXR [1]) of the same compound?
A: 3.5 ± 0.5

Q: What about the LXR signaling activation (LXR [1]) of the same compound?
A: Activate LXR Signaling

Q: What about the “colony formation (% of control)” value ([9]; Specimen # 1) of the same compound?
A: 46 % of control

Q: What about the “colony formation (% of control)” value ([9]; Specimen # 2) of the same compound?
A: 25 % of control

Q: And the “Normalized Colony # (% of control)” value (REH human ALL cells; 0.1 μM)?
A: 43 % of control

Q: And the “Raw Colony #” value (REH human ALL cells; 0.1 μM)?
A: 40

Q: What about the “Normalized Colony # (% of control)” value (REH human ALL cells; 0.5 μM) of the same compound?
A: 0.5 % of control

Q: What about the “Raw Colony #” value (REH human ALL cells; 0.5 μM) of the same compound?
A: 0.5

Q: What about the clonogenic growth [10] of the same compound?
A: inhibited clonogenic growth

Q: Which fold induction at 2 µM (LXR [1]) does the source give for C[C@]12CC[C@H]3[C@@H](CC=C4C[C@@H](O)CC[C@@]43C)[C@@H]1CC[C@@H]2[C@@](C)(O)CCCc1ccccc1 [Oxy22] here?
A: 2.2 ± 0.4

Q: What about the LXR signaling activation (LXR [1]) of the same compound?
A: Activate LXR Signaling

Q: What does the source list for C[C@]12CC[C@H]3[C@@H](CC=C4C[C@@H](O)CC[C@@]43C)[C@@H]1CC[C@@H]2[C@@](C)(O)CCc1ccc(Cl)cc1 [Oxy47, (3S,8S,9S,10R,13S,14S,17S)-17-((S)-4-(4-Chlorophenyl)-2-hydroxybutan-2-yl)-10,13-dimethyl-2,3,4,7,8,9,10,11,12,13,14,15,16,17-tetradecahydro-1H-cyclopenta-[a]-phenanthren-3-ol]?
A: fold induction at 2 µM (LXR [1]): 1.8 ± 0.5; LXR signaling activation (LXR [1]): Activate LXR Signaling
